Data from patent publication EP0423373A1, “STYRENE DERIVATIVE AND METHOD OF PRODUCTION THEREOF, POLYSTYRENE DERIVATIVE PRODUCED THEREFROM AND METHOD OF PRODUCING THE SAME, AND ULTRAVIOLET ABSORBENT AND COSMETICS CONTAINING SAID POLYSTYRENE DERIVATIVE AS ACTIVE INGREDIENT” (EARTH CHEMICAL CO., LTD., priority 1989, dated 1990).

tested on: skin of a quinea pig; assay: Percutaneous absorption, diffusion cell (Franz); assay type: in vitro ADME; settings: 1 % aqueous solution of sodium salt, 33 C, 20 hours
Experimental: The skin of a quinea pig was peeled, washed with physiological saline and then set in a percutaneous absopriton apparatus which was made in accordance with the description in Franz, T. J, J. Invest, Dermotal 64 , 190, 1975, by means of a diffusion cell. The sample room was filled with […] of a 1 % aqueous solution of sodium salt of the obtained polystyrene derivative, and the acceptor was filled with physiological saline. After maintaining at 33 C for 20 hours while stirring with a magnetic stirrier, the physiological saline in the acceptor was taken out, and the ultraviolet absorbency was measured. As the result, when the polystyrene derivative was used, the absorption curve of the ultraviolet absorption spectrum was similar to that obtained when the physiological saline was solely used as a negative control. When a compound having a lower molecular weight (1 % aqueous solution of sodium salt of p-aminobenzoic acid) was used as a positive control, the compound was observed by the ultraviolet absorption spectrum corresponding to 95 ppm in connection.

SMILES | compound observed in the acceptor by the ultraviolet absorption spectrum
Nc1ccc(C(=O)O)cc1 [p-aminobenzoic acid] | 95 ppm

tested on: not listed separately; assay: Ultraviolet absorption spectrum; assay type: physicochemical; settings: ethanol solution, 10 ppm, quartz cell, optical path 10 mm
Excerpt: The wavelength at the maximum absorption (λ max) and the molar extinction coefficient (E) were found by measuring ultraviolet absorption spectrum of an ethanol solution of the sample having a concentration of 10 ppm in a quartz cell having an optical path of 10 mm by means of a spectrophotometer (UV-200S, made by SHIMADZU CORPORATION).

SMILES | Molar extinction coefficient (ε) | Wavelength at the maximum absorption (λ max)
C=Cc1ccc(C(=O)CC(=O)c2ccc(C(=O)OC)cc2)cc1 [4-methyoxycarbonyl-4'-vinyldibenzoylmethane] | 33,000 | 361 nm
C=Cc1ccc(CN(N=Cc2ccc(C(=O)O)cc2)C(=S)NC)cc1 [Example 1, p'-carboxybenzaidehyde 4-methyl-2-p-vinylbenzylthiosemicarbazone] | 33,000 | 331 nm
C=Cc1ccc(CNC(=S)N(C)N=Cc2ccc(C(=O)O)cc2)cc1 [Example 2, p'-carboxybenzaldehyde 2-methyl-4-P-vinylbenzylthiosemicarbazone] | 40,000 | 332 nm
C=Cc1ccc(CN(N=Cc2ccc(C=CC(=O)O)cc2)C(=S)NC)cc1 [Example 3, p'-carboxyvinylenebenzaldehyde 4-methyl-2-p-vinylbenzylthiosemicarbazone] | 60,000 | 348 nm
C=Cc1ccc(CN(N=Cc2ccc(C(=O)O)cc2)C(N)=O)cc1 [Example 4, p'-carboxybenzaldehyde 2-p-vinylbenzylsemicarbazone] | 29,000 | 306 nm
C=Cc1ccc(CN(N=Cc2ccc(C(=O)O)cc2)C(=O)NC)cc1 [Example 5, p'-carboxybenzaldehyde 4-methyl-2-p-vinylbenzylsemicarbazone] | 29,000 | 310 nm
C=Cc1ccc(CN(N=Cc2ccccc2)C(=S)NC)cc1 [Example 6, benzaldehyde 4-methyl-2-p-vinylbenzylthiosemicarbazone] | 33,000 | 317 nm
C=Cc1ccc(CN(N=Cc2ccc(C)cc2)C(=S)NC)cc1 [Example 7, p'-methylbenzaldehyde 4-methyl-2-p-vinylbenzylthiosemicarbazone] | 33,000 | 317 nm
C=Cc1ccc(CN(N=Cc2ccc(N(C)C)cc2)C(=S)NC)cc1 [Example 8, p'-dimethylaminobenzaldehyde 4-methyl-2-p-vinylbenzylthiosemicarbazone] | 38,000 | 358 nm
C=Cc1ccc(CN(N=Cc2ccc(Cl)cc2)C(=S)NC)cc1 [Example 9, p'-chlorobenzaldehyde 4-methyl-2-p-vinylbenzylthiosemicarbazone] | 41,000 | 318 nm
C=Cc1ccc(CN(N=Cc2ccc([N+](=O)[O-])cc2)C(=S)NC)cc1 [Example 10, p'-nitrobenzaldehyde 4-methyl-2-p-vinylbenzylthiosemicarbazone] | 36,000 | 359 nm
C=Cc1ccc(CN(N=Cc2ccco2)C(=S)NC)cc1 [Example 11, 2'-furylaldehyde 4-methyl-2-p-vinylbenzylthiosemicarbazone] | 34,000 | 321 nm
C=Cc1ccc(CN(N=Cc2cccs2)C(=S)NC)cc1 [Example 12, 2'-thienylaldehyde 4-methyl-2-p-vinylbenzylthiosemicarbazone] | 39,000 | 333 nm
C=Cc1ccc(CN(N=Cc2ccncc2)C(=S)NC)cc1 [Example 13, isonicotinic aldehyde 4-methyl-2-p-vinylbenzylthiosemicarbazone] | 36,000 | 325 nm
C=Cc1ccc(CN(N=CC=Cc2ccccc2)C(=S)NC)cc1 [Example 14, cinnamaldehyde 4-methyl-2-p-vinylbenzylthiosemicarbazone] | 46,000 | 335 nm
C=Cc1ccc(C(=O)CC(=O)c2ccc(C(=O)O)cc2)cc1 [Example 57, 4-carboxy-4'-vinyldibenzoylmethane] | 34,000 | 361 nm
